{
  "source": "patent US5484584A",
  "about": "“Therapeutic and diagnostic use of modified polymeric microcapsules” (priority 1992, dated 1996)",
  "assay": "In vivo tissue distribution of 131I-ethyliopanoate loaded microcapsules after i.v. injection",
  "design": "species or system rat",
  "details": "rats, 5 uCi radiotracer",
  "protocol": "PBLG and estrone-PBLG microcapsules loaded with [^131 I]ethyliopanoate (5.7 μCi in […] of water) were administered to rats in the tail vein. Rats (N=3/group) were sacrificed at 1, 3, 6, and 24 hours after injection. The percentage of injected dose in an organ or tissue was determined by a gamma counter.\nEstrone conjugated poly-benzyl-L-glutamate microcapsules loaded with ^131 I-labeled ethyliopanoate were injected into rats (three per group) via the tail-vein (5.7 μCi in 0.3 ml water). Control groups were given only the ^131 I-labeled iopanoic acid. Rats were sacrificed at 1, 3, 6 and 24 hours post injection. The percent of injected dose per organ or per tissue weight was determined by a COBRA Auto-gamma counter (Packard, Meridien, Conn.).",
  "data": [
    {"smiles": "CCOC(=O)C(CC)Cc1c(I)cc(I)c(N)c1I", "note": "(stereo not drawn) [IOPA, ethyliopanoate]", "values": [
      {"measurement": "UTERUS TO MUSCLE RATIO", "setting": "1 hr", "result": "2.92 ± 0.464"},
      {"measurement": "UTERUS TO MUSCLE RATIO", "setting": "3 hrs", "result": "3.60 ± 0.346"},
      {"measurement": "UTERUS TO MUSCLE RATIO", "setting": "6 hrs", "result": "3.47 ± 0.122"}
    ]}
  ]
}
